Test results from patent publication US20230028441A1, “NOVEL HETEROARYL-TRIAZOLE COMPOUNDS AS PESTICIDES” (Bayer Aktiengesellschaft, priority 2019, published 2023).

How the values were obtained:
Type in all cases: in vivo
[1] = test system: larvae of the banded cucumber beetle (Diabrotica balteata); experiment: Diabrotica balteata spray test; conditions: 168 h, after 7 days, wheat seeds, read-out: efficacy (seedlings grown up); for pest or weed control at 32 µg/disc, 100 g/ha: 100 g/ha (=32 μg/well)
Outline: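 Germinated wheat seedlings (5 per well, agar plates) sprayed with compound in acetone/DMF diluted in water with 1000 ppm emulsifier, then infested with 10-20 larvae per unit. Efficacy scored after 7 days as % seedling growth relative to untreated, uninfested control (100% = normal growth, 0% = none).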

[2] = test system: adult unfed cat fleas (Ctenocephalides felis); experiment: Ctenocephalides felis oral test; conditions: 48 h, 100 ppm in cattle blood, after 2 days
Outline: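 About 20 adult unfed Ctenocephalides felis fed through parafilm on cattle blood dosed with compound (DMSO stock diluted in blood), blood chamber at 37°C, fleas at room temperature. Mortality (%) scored after 2 days; 100% means all fleas killed.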

[3] = test system: cattle tick larvae (Rhipicephalus microplus), strain Parkhurst, resistant against synthetic pyrethroids; experiment: Rhipicephalus (Boophilus) microplus in-vitro contact test, larval cattle tick; conditions: 5 μg/cm^2 (=500 g/ha), after 48 hours, read-out: efficacy (larvae dead or moribund)
Outline: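 Acetone solutions of compound were coated on glass tube walls (900 ppm giving 5 μg/cm^2) and dried. 20–50 pyrethroid-resistant Parkhurst larvae were held per tube at 27° C and 85% relative humidity; after 48 h negative geotaxis scored efficacy as percent larvae dead or moribund.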

[4] = test system: green peach aphid (Myzus persicae); experiment: Myzus persicae oral test; conditions: 120 h
Outline: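 Acetone stock (1 pbw compound/100 pbw solvent) diluted in water; mixed with sugar-supplemented IPL41 medium; parafilm-sealed; mixed aphid population sucks through film; mortality % read at 5 d.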

[5] = test system: adult cat fleas (Ctenocephalides felis); experiment: Ctenocephalides felis in-vitro contact test, adult cat flea; conditions: 5 μg/cm^2 (=500 g/ha), after 48 hours, read-out: efficacy (fleas dead or moribund)
Outline: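 Acetone solutions were coated on glass tube walls, 900 ppm giving 5 μg/cm^2. After drying, 5-10 adult fleas per tube were held 48 h at room temperature. Fleas unable to climb away from a 45-50 °C heating plate within 5 min were scored dead or moribund, as % efficacy.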

[6] = test system: adult engorged female ticks (Rhipicephalus microplus); experiment: Rhipicephalus (Boophilus) microplus injection test; conditions: 168 h, egg deposition after 7 days, read-out: efficacy (infertile eggs); for pest or weed control at 0.004 mg: 4 μg/animal; for pest or weed control at 0.02 mg: 20 μg/animal
Outline: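 Compound was dissolved in DMSO at 10 mg per 0.5 mL and diluted with DMSO to the test concentration. Five engorged adult females received a 1 μL abdominal injection and were kept in a climate chamber. After 7 days, fertile egg deposition was scored, with unclear eggs held until hatching at about 42 days; 100% efficacy means all eggs were infertile.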

[7] = test system: cattle ticks (Rhipicephalus microplus) strain Parkhurst, SP-resistant; experiment: Rhipicephalus (Boophilus) microplus dip test; conditions: 100 ppm, egg deposition after 7 days
Description: Test animal: cattle ticks (Rhipicephalus microplus) strain Parkhurst, SP-resistant
Solvent: dimethyl sulfoxide
To produce a suitable preparation of active compound, 10 mg of active compound are dissolved in 0.5 mL solvent, and the concentrate is diluted with water to the desired concentration.
This compound solution is pipetted into tubes. 8-10 engorged, adult, female cattle ticks (Rhipicephalus microplus) are placed in perforated tubes. These tubes are immersed in the aqueous compound solution until the ticks are completely moistened. After the liquid has drained off, the ticks are transferred to a filter paper in a plastic tray and stored in a climate chamber.
After 7 days egg deposition of fertile eggs is monitored. Eggs where fertility is not visible are stored in a climate chamber till hatching after about 42 days. An efficacy of 100% means all eggs are infertile; 0% means all eggs are fertile.

[8] = test system: adult brown dog ticks (Rhipicephalus sanguineus); experiment: Rhipicephalus sanguineus in-vitro contact test with adult brown dog ticks; conditions: after 48 hours, read-out: efficacy (ticks dead or moribund); for pest or weed control at 1 µg/cm2, 100 g/ha: 1 μg/cm^2 (=100 g/ha); for pest or weed control at 5 µg/cm2, 500 g/ha: 5 μg/cm^2 (=500 g/ha)
Outline: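 Compound in acetone coated onto glass tube inner walls at 900 ppm, giving 5 μg/cm^2. Adult ticks (5-10 per tube) held at room temperature for 48 h, then placed on a 45-50° C. heating plate for up to 5 min. Ticks unable to climb away counted dead or moribund; efficacy given as % dead/moribund.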

[9] = test system: larvae of the southern green stink bug (Nezara viridula); experiment: Nezara viridula spray test; conditions: in Hordeum vulgare, 96 h
Outline: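 Barley plants infested with Nezara viridula larvae were sprayed with compound in acetone/dimethylformamide, diluted in water containing 1000 ppm alkylarylpolyglycol ether emulsifier. Mortality (%) was scored after 4 days; 100% means all stink bugs killed.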

[10] = test system: fall armyworm larvae (Spodoptera frugiperda); experiment: Spodoptera frugiperda spray test (maize leaf sections); conditions: 168 h
Outline: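 Maize leaf sections were sprayed with compound formulated in acetone/DMF and diluted in water containing 1000 ppm emulsifier. Once dry, sections were infested with fall armyworm larvae. Mortality (%) was scored after 7 days.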

[11] = test system: southern root-knot nematode (Meloidogyne incognita); experiment: Meloidogyne incognita test; conditions: 336 h, after 14 days, read-out: nematicidal activity (gall formation)
Description: Solvent: 125.0 parts by weight of acetone
To produce a suitable preparation of active compound, 1 part by weight of active compound is mixed with the stated amount of solvent, and the concentrate is diluted with water to the desired concentration.
Vessels are filled with sand, a solution of the active ingredient, a suspension containing eggs and larvae of the southern root-knot nematode (Meloidogyne incognita) and salad seeds. The salad seeds germinate and the seedlings grow. Galls develop in the roots.
After 14 days the nematicidal activity is determined on the basis of the percentage of gall formation. 100% means no galls were found and 0% means the number of galls found on the roots of the treated plants was equal to that in untreated control plants.

[12] = test system: green peach aphid (Myzus persicae); experiment: Myzus persicae spray test; conditions: foliar, 120 h, 100 g/ha, after 5 days, Chinese cabbage leaf disks
Outline: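 Chinese cabbage leaf disks carrying all instars of Myzus persicae were sprayed with compound. The formulation was acetone/dimethylformamide diluted in water with 1000 ppm alkylarylpolyglycol ether emulsifier. Percent mortality was scored after 5 days, with 100% meaning all aphids killed.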

[13] = test system: two spotted spidermite (Tetranychus urticae); experiment: Tetranychus urticae spray test, OP-resistant; conditions: foliar, 144 h, after 6 days, French bean leaf disks
Description: Solvent: 78.0 parts by weight acetone • 1.5 parts by weight dimethylformamide
Emulsifier: alkylarylpolyglycol ether
To produce a suitable preparation of active compound, 1 part by weight of active compound is mixed with the stated amount of solvents and is diluted with water, containing an emulsifier concentration of 1000 ppm, to the desired concentration. Further test concentrations are prepared by dilution with emulsifier containing water.
French bean (Phaseolus vulgaris) leaf disks infected with all instars of the two spotted spidermite (Tetranychus urticae), are sprayed with a preparation of the active ingredient of the desired concentration.
After 6 days mortality in % is determined. 100% means all spider mites have been killed and 0% means none of the spider mites have been killed.

[14] = test system: caterpillars of the fall army worm (Spodoptera frugiperda); experiment: Spodoptera frugiperda spray test (cotton leaves); conditions: 168 h
Outline: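 Cotton leaves sprayed with compound in water/DMF with 1000 ppm alkylaryl polyglycol ether emulsifier, ammonium salt and/or penetration enhancer at 1000 ppm added if necessary, then infested with fall armyworm caterpillars. Mortality in % scored after 7 days; 100% means all caterpillars killed.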

[15] = test system: brown planthopper (Nilaparvata lugens); experiment: Nilaparvata lugens spray test; conditions: in Oryza sativa, 96 h
Outline: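 Rice plants (Oryza sativa) sprayed with compound in acetone/DMF diluted in water containing 1000 ppm alkylarylpolyglycol ether emulsifier, then infested with planthoppers. Mortality % scored after 4 days (100% = all killed, 0% = none killed).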

CC(NC(=O)c1cc(Cl)cc(C(F)(F)F)c1)c1nc(N)nn1-c1ncccn1 (racemic) [I-004, N-[1-(5-amino-2-pyrimidin-2-yl-1,2,4-triazol-3-yl)ethyl]-3-chloro-5-(trifluoromethyl)benzamide]
100%: pest or weed control at 32 µg/disc, 100 g/ha [1] | mortality at 100 ppm [2] | mortality at 4 ppm [4] | pest or weed control at 5 µg/cm2 [5] | pest or weed control at 0.004 mg [6]
80%: efficacy (infertile eggs) [7]
90%: pest or weed control at 5 µg/cm2 [3]

CC(NC(=O)c1cc(C(F)(F)F)cc(C(F)(F)F)c1)c1nc(N(C)C(=O)OC(C)(C)C)nn1-c1ncccn1 (racemic) [I-009, tert-butyl N-[5-[1-[[3,5-bis(trifluoromethyl)benzoyl]amino]ethyl]-1-pyrimidin-2-yl-1,2,4-triazol-3-yl]-N-methyl-carbamate]
90%: pest or weed control at 5 µg/cm2 [5]
100%: pest or weed control at 5 µg/cm2, 500 g/ha [8] | pest or weed control at 32 µg/disc, 100 g/ha [1] | mortality at 100 ppm [2] | pest or weed control at 5 µg/cm2 [3] | mortality at 100 g/ha [9] | mortality at 100 g/ha [10] | mortality at 4 ppm [4] | pest or weed control at 0.004 mg [6]
80%: pest or weed control at 1 µg/cm2, 100 g/ha [8] | efficacy (infertile eggs) [7]

CC(NC(=O)c1cc(Cl)cc(C(F)(F)F)c1)c1nc(C(=O)NC2CC2)nn1-c1ncccn1 (single isomer, unassigned) [I-076, 5-[1-[[3-chloro-5-(trifluoromethyl)benzoyl]amino]ethyl]-N-cyclopropyl-1-pyrimidin-2-yl-1,2,4-triazole-3-carboxamide]
100%: mortality at 100 ppm [2] | mortality at 100 g/ha [9] | mortality at 100 g/ha [10] | mortality at 4 ppm [4] | pest or weed control at 5 µg/cm2 [5] | pest or weed control at 0.004 mg [6] | pest or weed control at 0.02 mg [6]
90%: pest or weed control at 5 µg/cm2 [3] | pest or weed control at 20 ppm [11] | mortality at 100 g/ha [12]

CC(NC(=O)c1cc(Cl)cc(C(F)(F)F)c1)c1nc(NC(=O)OC(C)(C)C)nn1-c1ccc(Cl)cn1 (centres unmarked) [I-003]
100%: pest or weed control at 0.02 mg [6]
90%: mortality at 500 g/ha [13]
80%: pest or weed control at 0.004 mg [6]

CC(NC(=O)c1cc(Cl)cc(S(C)(=O)=O)c1)c1nc(NC(=O)C2CC2)nn1-c1ccc(Cl)cn1 (centres unmarked) [I-013]
90%: pest or weed control at 5 µg/cm2 [3]
80%: efficacy (infertile eggs) [7]
100%: mortality at 100 ppm [2] | mortality at 20 ppm [14] | pest or weed control at 0.004 mg [6] | pest or weed control at 0.02 mg [6]

CC(NC(=O)c1cc(Cl)cc(C(F)(F)F)c1)c1nc(NC(=O)CC(F)(F)F)nn1-c1ccc(Cl)cn1 (centres unmarked) [I-016]
90%: mortality at 500 g/ha [13]
100%: pest or weed control at 32 µg/disc, 100 g/ha [1] | pest or weed control at 160 µg/disc, 500 g/ha ([1]; 500 g/ha (=160 μg/well)) | mortality at 100 ppm [2] | pest or weed control at 5 µg/cm2 [3] | mortality at 100 g/ha [10] | mortality at 500 g/ha [10] | mortality at 20 ppm [14] | pest or weed control at 0.004 mg [6] | pest or weed control at 0.02 mg [6]

CNC(=O)c1nc(C(C)NC(=O)c2cc(Cl)cc(C(F)(F)F)c2)n(-c2ncccn2)n1 (centres unmarked) [I-077]
90%: pest or weed control at 20 ppm [11] | mortality at 100 g/ha [12] | mortality at 100 g/ha [15] | pest or weed control at 5 µg/cm2 [5]
100%: mortality at 100 ppm [2] | mortality at 100 g/ha [9] | mortality at 4 ppm [4] | pest or weed control at 0.004 mg [6] | pest or weed control at 0.02 mg [6]

CNc1nc([C@H](C)NC(=O)c2cc(Br)cc(OC(F)(F)F)c2)n(-c2ncccn2)n1 [I-130]
90%: pest or weed control at 20 ppm [11] | mortality at 500 g/ha [15]
100%: pest or weed control at 1 µg/cm2, 100 g/ha [8] | pest or weed control at 5 µg/cm2, 500 g/ha [8] | pest or weed control at 32 µg/disc, 100 g/ha [1] | pest or weed control at 5 µg/cm2 [3] | mortality at 100 g/ha [12] | mortality at 500 g/ha [9] | mortality at 100 g/ha [10] | pest or weed control at 5 µg/cm2 [5] | mortality at 20 ppm [14]

CNc1nc([C@H](C)NC(=O)c2cc(OC(F)(F)F)cc(C3CC3)c2)n(-c2ncccn2)n1 [I-132]
90%: pest or weed control at 20 ppm [11] | mortality at 100 g/ha [12]
100%: pest or weed control at 1 µg/cm2, 100 g/ha [8] | pest or weed control at 5 µg/cm2, 500 g/ha [8] | pest or weed control at 32 µg/disc, 100 g/ha [1] | pest or weed control at 5 µg/cm2 [3] | mortality at 500 g/ha [9] | mortality at 100 g/ha [10] | pest or weed control at 5 µg/cm2 [5] | mortality at 20 ppm [14]

C[C@H](NC(=O)c1cc(C(F)(F)F)cc(C(F)(F)F)c1)c1nc(N2CCOCC2)nn1-c1ncccn1 [I-145, N-[(1S)-1-(5-morpholino-2-pyrimidin-2-yl-1,2,4-triazol-3-yl)ethyl]-3,5-bis(trifluoromethyl)benzamide]
100%: pest or weed control at 32 µg/disc, 100 g/ha [1] | pest or weed control at 5 µg/cm2 [3] | pest or weed control at 20 ppm [11] | mortality at 500 g/ha [9] | mortality at 100 g/ha [10]
80%: pest or weed control at 5 µg/cm2 [5]
